Test results reported in patent US6689773B2, “Uracil substituted phenyl sulfamoyl carboxamides” (BASF Aktiengesellschaft, priority 2000, dated 2004).

How the values were obtained:
Format in all cases: in vivo
[1] = system: ALOMY, Blackgrass, Alopecurus myosuroides; assay: Preemergence herbicidal evaluation (Example 148); conditions: rating scale 0-9, two to four weeks after treatment
Summary of the method: (§1)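 Sow seed–soil mix onto ~1 in soil; spray aqueous acetone compound solution (~0.125–0.250 kg/ha equivalent); keep on greenhouse benches under standard watering; score injury visually after 2–4 weeks.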

[2] = system: DIGSA, Crabgrass, (Hairy) L, Digitaria sanguinalis, (L)Scop; assay: Preemergence herbicidal evaluation (Example 148); conditions: rating scale 0-9, two to four weeks after treatment
Summary of the method: as §1

[3] = system: ECHCG, Barnyardgrass, Echinochloa crusgalli, (L.)Beau; assay: Preemergence herbicidal evaluation (Example 148); conditions: rating scale 0-9, two to four weeks after treatment
Summary of the method: as §1

[4] = system: XANST, Cocklebur, Xanthium strumariam; assay: Preemergence herbicidal evaluation (Example 148); conditions: rating scale 0-9, two to four weeks after treatment
Summary of the method: as §1

[5] = system: GLXMA, Soybean, Glycine max, (L.) Merr.; assay: Preemergence herbicidal evaluation (Example 148); conditions: rating scale 0-9, two to four weeks after treatment
Summary of the method: as §1

[6] = system: CHEAL, Lambsquarters, Chenopodium album, L. Common; assay: Preemergence herbicidal evaluation (Example 148); conditions: rating scale 0-9, two to four weeks after treatment
Summary of the method: as §1

[7] = system: ABUTH, Velvetleaf, Abutilon theophrasti, Medic.; assay: Preemergence herbicidal evaluation (Example 148); conditions: rating scale 0-9, two to four weeks after treatment
Summary of the method: as §1

[8] = system: AMBEL, Ragweed, Common, Ambrosia artemiisifolia, L.; assay: Preemergence herbicidal evaluation (Example 148); conditions: rating scale 0-9, two to four weeks after treatment
Summary of the method: as §1

[9] = system: IPOHE, Morningglory, Ivyleaf, Ipomoea hederacea, (L)Jacq.; assay: Preemergence herbicidal evaluation (Example 148); conditions: rating scale 0-9, two to four weeks after treatment
Summary of the method: as §1

[10] = system: TRZAW, Winter wheat, Tritium Aestivum, L. (Winter); assay: Preemergence herbicidal evaluation (Example 148); conditions: rating scale 0-9, two to four weeks after treatment
Summary of the method: as §1

[11] = system: SETVI, Green foxtail, Setaria viridis, (L.)Beau; assay: Preemergence herbicidal evaluation (Example 148); conditions: rating scale 0-9, two to four weeks after treatment
Summary of the method: as §1

[12] = system: ZEAMX, Field corn, Zea mays L.; assay: Preemergence herbicidal evaluation (Example 148); conditions: rating scale 0-9, two to four weeks after treatment
Summary of the method: as §1

[13] = system: ALOMY, Blackgrass, Alopecurus myosuroides; assay: Postemergence herbicidal evaluation (Example 147); conditions: rating scale 0-9, two to three weeks after treatment
Summary of the method: (§2)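 Plants at about two weeks from sowing received a foliar spray of test compound equivalent to roughly 0.016 to 0.032 kg per hectare. The carrier was 80/20 acetone/water containing 1.0% methylated seed oil. Injury was scored on a 0-9 visual scale two to three weeks later.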

[14] = system: DIGSA, Crabgrass, (Hairy) L, Digitaria sanguinalis, (L)Scop; assay: Postemergence herbicidal evaluation (Example 147); conditions: rating scale 0-9, two to three weeks after treatment
Summary of the method: as §2

[15] = system: ECHCG, Barnyardgrass, Echinochloa crusgalli, (L.)Beau; assay: Postemergence herbicidal evaluation (Example 147); conditions: rating scale 0-9, two to three weeks after treatment
Summary of the method: as §2

[16] = system: XANST, Cocklebur, Xanthium strumariam; assay: Postemergence herbicidal evaluation (Example 147); conditions: rating scale 0-9, two to three weeks after treatment
Summary of the method: as §2

[17] = system: GLXMA, Soybean, Glycine max, (L.) Merr.; assay: Postemergence herbicidal evaluation (Example 147); conditions: rating scale 0-9, two to three weeks after treatment
Summary of the method: as §2

[18] = system: CHEAL, Lambsquarters, Chenopodium album, L. Common; assay: Postemergence herbicidal evaluation (Example 147); conditions: rating scale 0-9, two to three weeks after treatment
Summary of the method: as §2

[19] = system: ABUTH, Velvetleaf, Abutilon theophrasti, Medic.; assay: Postemergence herbicidal evaluation (Example 147); conditions: rating scale 0-9, two to three weeks after treatment
Summary of the method: as §2

[20] = system: AMBEL, Ragweed, Common, Ambrosia artemiisifolia, L.; assay: Postemergence herbicidal evaluation (Example 147); conditions: rating scale 0-9, two to three weeks after treatment
Summary of the method: as §2

[21] = system: IPOHE, Morningglory, Ivyleaf, Ipomoea hederacea, (L)Jacq.; assay: Postemergence herbicidal evaluation (Example 147); conditions: rating scale 0-9, two to three weeks after treatment
Summary of the method: as §2

[22] = system: TRZAW, Winter wheat, Tritium Aestivum, L. (Winter); assay: Postemergence herbicidal evaluation (Example 147); conditions: rating scale 0-9, two to three weeks after treatment
Summary of the method: as §2

[23] = system: SETVI, Green foxtail, Setaria viridis, (L.)Beau; assay: Postemergence herbicidal evaluation (Example 147); conditions: rating scale 0-9, two to three weeks after treatment
Summary of the method: as §2

[24] = system: ZEAMX, Field corn, Zea mays L.; assay: Postemergence herbicidal evaluation (Example 147); conditions: rating scale 0-9, two to three weeks after treatment
Summary of the method: as §2

Substance: 3-(5-(N,N-Dimethyl)sulfamoylcarboxamido-4-chloro-2-fluorophenyl)-1,2,3,4-dihydro-6-trifluoromethylpyrimidin-2,4-dione [Example 54]
- Preemergence herbicidal rating ALMOY ([1]; rate 0.125 kg/ha): 0.0
- Preemergence herbicidal rating ALMOY ([1]; rate 0.25 kg/ha): 0.0
- Preemergence herbicidal rating DIGSA ([2]; rate 0.125 kg/ha): 4.0
- Preemergence herbicidal rating DIGSA ([2]; rate 0.25 kg/ha): 6.0
- Preemergence herbicidal rating ECHCG ([3]; rate 0.125 kg/ha): 3.0
- Preemergence herbicidal rating ECHCG ([3]; rate 0.25 kg/ha): 3.0
- Preemergence herbicidal rating XANST ([4]; rate 0.125 kg/ha): 1.0
- Preemergence herbicidal rating XANST ([4]; rate 0.25 kg/ha): 3.0
- Preemergence herbicidal rating GLXMA ([5]; rate 0.125 kg/ha): 0.0
- Preemergence herbicidal rating GLXMA ([5]; rate 0.25 kg/ha): 0.0
- Preemergence herbicidal rating CHEAL ([6]; rate 0.125 kg/ha): 9.0
- Preemergence herbicidal rating CHEAL ([6]; rate 0.25 kg/ha): 9.0
- Preemergence herbicidal rating ABUTH ([7]; rate 0.125 kg/ha): 9.0
- Preemergence herbicidal rating ABUTH ([7]; rate 0.25 kg/ha): 9.0
- Preemergence herbicidal rating AMBEL ([8]; rate 0.125 kg/ha): 7.0
- Preemergence herbicidal rating AMBEL ([8]; rate 0.25 kg/ha): 8.0
- Preemergence herbicidal rating IPOHE ([9]; rate 0.125 kg/ha): 0.0
- Preemergence herbicidal rating IPOHE ([9]; rate 0.25 kg/ha): 1.0
- Preemergence herbicidal rating TRZAW ([10]; rate 0.125 kg/ha): 0.0
- Preemergence herbicidal rating TRZAW ([10]; rate 0.25 kg/ha): 0.0
- Preemergence herbicidal rating SETVI ([11]; rate 0.125 kg/ha): 2.0
- Preemergence herbicidal rating SETVI ([11]; rate 0.25 kg/ha): 3.0
- Preemergence herbicidal rating ZEAMX ([12]; rate 0.125 kg/ha): 0.0
- Preemergence herbicidal rating ZEAMX ([12]; rate 0.25 kg/ha): 0.0
- Postemergence herbicidal rating ALMOY ([13]; rate 0.016 kg/ha): 2.0
- Postemergence herbicidal rating ALMOY ([13]; rate 0.032 kg/ha): 2.0
- Postemergence herbicidal rating DIGSA ([14]; rate 0.016 kg/ha): 5.0
- Postemergence herbicidal rating DIGSA ([14]; rate 0.032 kg/ha): 6.0
- Postemergence herbicidal rating ECHCG ([15]; rate 0.016 kg/ha): 6.0
- Postemergence herbicidal rating ECHCG ([15]; rate 0.032 kg/ha): 8.0
- Postemergence herbicidal rating XANST ([16]; rate 0.016 kg/ha): 9.0
- Postemergence herbicidal rating XANST ([16]; rate 0.032 kg/ha): 9.0
- Postemergence herbicidal rating GLXMA ([17]; rate 0.016 kg/ha): 8.0
- Postemergence herbicidal rating GLXMA ([17]; rate 0.032 kg/ha): 8.5
- Postemergence herbicidal rating CHEAL ([18]; rate 0.016 kg/ha): 9.0
- Postemergence herbicidal rating CHEAL ([18]; rate 0.032 kg/ha): 9.0
- Postemergence herbicidal rating ABUTH ([19]; rate 0.016 kg/ha): 9.0
- Postemergence herbicidal rating ABUTH ([19]; rate 0.032 kg/ha): 9.0
- Postemergence herbicidal rating AMBEL ([20]; rate 0.016 kg/ha): 9.0
- Postemergence herbicidal rating AMBEL ([20]; rate 0.032 kg/ha): 9.0
- Postemergence herbicidal rating IPOHE ([21]; rate 0.016 kg/ha): 9.0
- Postemergence herbicidal rating IPOHE ([21]; rate 0.032 kg/ha): 9.0
- Postemergence herbicidal rating TRZAW ([22]; rate 0.016 kg/ha): 5.5
- Postemergence herbicidal rating TRZAW ([22]; rate 0.032 kg/ha): 6.0
- Postemergence herbicidal rating SETVI ([23]; rate 0.016 kg/ha): 7.0
- Postemergence herbicidal rating SETVI ([23]; rate 0.032 kg/ha): 7.0
- Postemergence herbicidal rating ZEAMX ([24]; rate 0.016 kg/ha): 6.5
- Postemergence herbicidal rating ZEAMX ([24]; rate 0.032 kg/ha): 7.5
